This passage reports IC50 and Ki results from patent publication US20190327974A1, “SYNERGISTS FOR IMPROVED PESTICIDES” (priority 2017, published 2019).

The target of assay [1] is T1, Gly137Asp LcαE7 (Gly137Asp variant of αE7 carboxylesterase) (Lucilia cuprina, UniProt Q25252, G137D).
T1 construct: GenBank number is of the wild-type parent
As to the kind of experiment: Inhibition of Gly137Asp αE7 (competition assay, hydrolysis of 4-nitrophenol butyrate), dose-response curves of FIG. 8. The format is biochemical. How it is done:
FIG. 8 presents dose-response curves for the inhibition of Glyl37Asp αE7. Inhibition of the hydrolysis of […] was determined for phenyl boronic acid (PBA) and compounds 1-5 and 3.1-3.12. Three (technical) replicate measurements of enzyme activity were performed for each concentration of boronic acid. The concentration of boronic acid required to inhibit 50% of activity (IC50) was determined by fitting a sigmoidal dose-response curve to plots of percentage inhibition. The curve was constrained to 0 (bottom) and 100% (top) inhibition with a variable Hill slope. […]
His6-tagged proteins were expressed in BL21(DE3) E. coli (Invitrogen) at 26° C. for 18 hours. Cells were collected by centrifugation, resuspended in lysis buffer (300 mM NaCl, 10 mM imidazole, 50 mM HEPES pH 7.5) and lysed by sonication. Cell debris was pelleted by centrifugation and the soluble fraction was loaded onto a HisTrap-HP Ni-Sepharose column (GE Healthcare). Bound protein was eluted with lysis buffer supplemented with 300 mM imidazole. Fractions containing the eluted protein were concentrated with a 30 kDa molecular mass cutoff centrifuge concentrator (Amicon) and loaded onto a HiLoad 26/60 Superdex-200 size-exclusion column (GE Healthcare) pre-equilibrated with 150 mM NaCl, 20 mM HEPES pH 7.5. Eluted fractions containing the monomeric protein were pooled for enzyme inhibition assays or crystallization. Protein concentration was determined by measuring the absorbance at 280 nm with an extinction coefficient calculated using the Protparam online server (Gasteiger, E. et al. Protein identification and analysis tools on the ExPASy server. Proteomics Protoc. Handb. 571-607 (2005). doi:10.1385/1-59259-890-0:571).
(§1) Inhibition of wild-type αE7 and the Gly137Asp αE7 variant was determined by a competition assay between the native-substrate analogue 4-nitrophenol butyrate (Sigma) and the boronic acid compounds. Initially, the Michalis constant (KM) with 4-nitrophenol butyrate was measured for both enzymes to determine an appropriate concentration of substrate for use in the competition assays. Formation of the 4-nitrophenolate product of hydrolysis was monitored at 405 nm in the presence of enzyme and eight different concentrations of substrate. 4-nitrophenol butyrate was prepared in methanol to 100 mM and serially diluted 1-in-2 to achieve concentrations from 100 mM to 0.8 mM. Enzyme stocks were prepared in 4 mg/ml bovine serum albumin (Sigma) to maintain enzyme stability. Reactions were prepared by pipetting 178 μl assay buffer (100 mM NaCl, 20 mM HEPES pH 7.5) and 2 μl substrate (final concentrations of 1000 to 8 μM) into 300 μl wells of a 96-well plate. The reaction was initiated by the addition of 20 μl enzyme (final concentration 2.5 nM for wildtype αE7 and 4 nM for Gly137Asp αE7). Product formation was monitored for four minutes at room temperature using an Epoch microplate spectrophotometer (BioTek) and the initial rates of ester hydrolysis were determined by linear regression using GraphPad Prism. The Michalis constant was determined by fitting the initial rates to the Michalis-Menton equation (FIG. 10).
Enzyme inhibition with the boronic acid compounds was determined by assaying the initial rate of 4-nitrophenol butyrate hydrolysis in the presence of either neat DMSO or the boronic acid compounds in DMSO. Compounds were prepared by serially diluting 1-in-3 an initial 10 mM stock to achieve concentrations from 10 mM to 2 nM. Reactions were prepared by pipetting 178 μl assay buffer supplemented with substrate to a final concentration equal to the KM of the enzyme (15 μM for wildtype αE7 and 250 μM for Gly137Asp αE7) into wells of a 96-well plate. 2 μl neat DMSO or 2 μl serially diluted inhibitor (final concentrations of 100 μM to 20 pM) were added to the wells. The reaction was initiated by the addition of 20 μl enzyme (final concentration 0.5 nM for wildtype αE7 and 10 nM for Glyl37Asp αE7). […]

The target of another assay is T2, wildtype LcαE7 (Lucilia cuprina, UniProt Q25252).
T2 sequence (Q25252 1-570): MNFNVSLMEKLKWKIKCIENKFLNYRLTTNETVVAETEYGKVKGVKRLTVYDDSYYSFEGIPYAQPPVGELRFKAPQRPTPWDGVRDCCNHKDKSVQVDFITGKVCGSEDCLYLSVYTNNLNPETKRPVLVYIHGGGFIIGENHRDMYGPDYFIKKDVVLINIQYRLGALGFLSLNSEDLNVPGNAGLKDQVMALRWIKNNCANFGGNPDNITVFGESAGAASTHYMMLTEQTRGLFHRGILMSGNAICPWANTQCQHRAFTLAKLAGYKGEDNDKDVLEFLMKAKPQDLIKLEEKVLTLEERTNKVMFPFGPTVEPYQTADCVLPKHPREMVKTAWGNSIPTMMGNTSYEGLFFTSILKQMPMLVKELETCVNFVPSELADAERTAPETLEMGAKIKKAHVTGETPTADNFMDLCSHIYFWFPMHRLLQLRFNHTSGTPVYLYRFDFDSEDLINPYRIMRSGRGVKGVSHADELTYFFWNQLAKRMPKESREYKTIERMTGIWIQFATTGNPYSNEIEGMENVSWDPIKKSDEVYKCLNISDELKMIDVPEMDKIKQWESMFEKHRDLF
Nature of the assay: Enzyme inhibition assay with 4-nitrophenol butyrate, wild-type. The format is biochemical. Here is the method:
Wild-type LcαE7 was heterologously expressed in Escherichia coli and purified using metal ion affinity and size exclusion chromatography. The potency of the boronic acids was determined by enzymatic assays of recombinant LcαE7 with the model carboxylester substrate 4-nitrophenol butyrate.
as §1
Enzyme inhibition with the boronic acid compounds was determined by assaying the initial rate of 4-nitrophenol butyrate hydrolysis in the presence of either neat DMSO or the boronic acid compounds in DMSO. Compounds were prepared by serially diluting 1-in-3 an initial 10 mM stock to achieve concentrations from 10 mM to 2 nM. Reactions were prepared by pipetting 178 μl assay buffer supplemented with substrate to a final concentration equal to the KM of the enzyme (15 μM for wildtype αE7 and 250 μM for Gly137Asp αE7) into wells of a 96-well plate. 2 μl neat DMSO or 2 μl serially diluted inhibitor (final concentrations of 100 μM to 20 pM) were added to the wells. The reaction was initiated by the addition of 20 μl enzyme (final concentration 0.5 nM for wildtype αE7 and 10 nM for Glyl37Asp αE7). Product formation was monitored for four minutes at room temperature and the initial rates of ester hydrolysis were determined by linear regression. To determine the concentration of boronic acid compounds required to inhibit 50% of esterase activity (IC50), a four-parameter sigmoidal dose-response curve was fitted to percentage inhibition using GraphPad Prism (FIGS. 7 and 8). Ki values were determined using the Cheng-Prusoff equation assuming competitive inhibition (Yung-Chi, C. & Prusoff W. H. Relationship between the inhibition constant (KI) and the concentration of inhibitor which causes 50 percent inhibition (150) of an enzymatic reaction. Biochem. Pharmacol. 22, 3099-3108 (1973)).

pIC50, pKi: −log10 of the molar value. Where two headings read alike, the source gives them in different places.

T1 sequence (Q25252 entry or part of it G137D): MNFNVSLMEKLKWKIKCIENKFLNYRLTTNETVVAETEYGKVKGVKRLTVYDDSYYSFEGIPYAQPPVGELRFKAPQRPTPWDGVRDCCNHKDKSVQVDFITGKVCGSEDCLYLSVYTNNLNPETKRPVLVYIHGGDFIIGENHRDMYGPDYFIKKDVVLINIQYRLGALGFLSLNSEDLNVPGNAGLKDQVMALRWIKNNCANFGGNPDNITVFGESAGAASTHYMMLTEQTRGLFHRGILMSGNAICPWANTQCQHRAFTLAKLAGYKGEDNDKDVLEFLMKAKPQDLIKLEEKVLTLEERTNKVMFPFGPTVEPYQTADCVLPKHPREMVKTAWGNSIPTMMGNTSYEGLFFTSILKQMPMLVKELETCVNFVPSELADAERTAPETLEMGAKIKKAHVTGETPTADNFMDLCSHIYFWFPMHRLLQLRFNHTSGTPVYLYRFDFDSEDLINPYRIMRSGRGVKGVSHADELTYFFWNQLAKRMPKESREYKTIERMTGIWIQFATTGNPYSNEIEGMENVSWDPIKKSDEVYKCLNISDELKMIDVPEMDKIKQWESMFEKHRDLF

Take `Cc1ccc(B(O)O)cc1Br` [Compound 1]: the pIC50 in assay [1] is 7.02. Besides, at wildtype LcαE7, the pKi was 7.92.
The corresponding values for `Cc1ccc(B(O)O)cc1OCc1ccccc1` [Compound 2] are 7.24 and 8.54.
In assay [1], `OB(O)c1cc(Br)cc(N2CCOCC2)c1` [Compound 3.1] had a negative logarithm of the IC50 (pIC50) of 6.08. The negative-log Ki (pKi) at wildtype LcαE7 (Cheng-Prusoff from dose-response, 4-nitrophenol butyrate, read-out: Ki wildtype LcαE7) is 9.15.
Turning to `OB(O)c1cc(Br)cc(N2CCCCC2)c1` [Compound 3.3], the negative-log IC50 (pIC50) in assay [1] is 6.54. This compound had a negative logarithm of the Ki (pKi) on wildtype LcαE7 of 9.33.
The corresponding values for `CN1CCN(c2cc(Br)cc(B(O)O)c2)CC1` [Compound 3.4] are 5.70 and 8.42.
The corresponding values for `OB(O)c1cc(Br)cc2c1OCC2` [Compound 3.5] are 6.07 and 8.47.
The corresponding values for `OB(O)c1cc(Br)c2ccccc2c1F` [Compound 3.6] are 6.85 and 8.22.
Compound `CC(C)Oc1cc(Br)cc(B(O)O)c1` [Compound 3.7, 3-Bromo-5-isopropoxyphenylboronic acid] showed a pIC50 in assay [1] of 6.82. Besides, on wildtype LcαE7, the pKi is 9.52.
The corresponding values for `OB(O)c1cc(Br)cc(OC(F)(F)F)c1` [Compound 3.8] are 6.68 and 8.70.
For the compound `OB(O)c1cc(Br)cc(OCc2ccccc2)c1` [Compound 3.9], the pKi at wildtype LcαE7 is 9.36.
Still for that read-out and setting: to `OB(O)c1cc(Br)cc(Oc2ccccc2)c1` [Compound 3.10, 3-Bromo-5-phenoxyfenylboronic acid] belongs 9.36.
`O=C(c1cc(Cl)cc(B(O)O)c1)N1CCOCC1` [Compound 3.11] had a pIC50 in assay [1] of 5.70. At wildtype LcαE7, this compound had a negative logarithm of the Ki (pKi) of 8.24.
The corresponding values for `CC(C)(C)Oc1ccc(B(O)O)cc1Br` [Compound 3.12] are 5.72 and 7.92.
Regarding `OB(O)c1cc(Br)cc(N2CCCC2)c1` [Compound 3], the pIC50 in assay [1] is 6.66. The same compound gave a negative-log Ki (pKi) at wildtype LcαE7 of 9.60.
The corresponding values for `OB(O)c1ccc2ccccc2c1` [Compound 4] are 6.43 and 8.14.
The corresponding values for `OB(O)c1ccc(OCc2ccccc2F)c(Cl)c1` [Compound 5, 3-Chloro-4(2′-fluorobenzyloxy) phenylboronic acid] are 6.49 and 7.96.
Regarding `OB(O)c1ccccc1` [PBA, phenylboronic acid, reference compound], the pIC50 in assay [1] is 6.06. Besides, the pKi at wildtype LcαE7 is 6.68.
